Data taken from publication PMC10006169, “A phase I trial of LXS196, a protein kinase C (PKC) inhibitor, for metastatic uveal melanoma” (British Journal of Cancer, 2023).
Read-outs that look alike come from different tables or passages of the source.

Test: Plasma pharmacokinetics (LC-MS/MS)
Type: in vivo, human
Settings: human, plasma; for concentration at 15 day: read-out: Cmin, Median (Min, max)
Procedure: In the dose escalation part of the study, PK samples were collected at various pre- and post-dose time points on C1D1, D2, D3, D15 and D16. Drug concentrations were assessed using a validated liquid chromatography-tandem mass spectrometry assay.

CC1(N)CCN(c2cccnc2NC(=O)c2nc(-c3ncccc3C(F)(F)F)cnc2N)CC1 [LXS196]
AUC(0-t) (oral, 500 mg, C1D1, 500 mg QD, n=10, read-out: AUC0-t, Median (Min, max)): 50700 ng·h/mL
AUC(0-inf) (oral, 500 mg, C1D1, 500 mg QD, n=10, read-out: AUCinf, Geo-mean): 59500 ng·h/mL
AUC(0-inf) (oral, 500 mg, C1D1, 500 mg QD, n=10, read-out: AUCinf, Mean (SD)): 63400 ng·h/mL
AUC(0-inf) (oral, 500 mg, C1D1, 500 mg QD, n=10, read-out: AUCinf, Median (Min, max)): 61700 ng·h/mL
Cmax (oral, 500 mg, C1D1, 500 mg QD, n=10, read-out: Cmax, Geo-mean): 4670 ng/mL
Cmax (oral, 500 mg, C1D1, 500 mg QD, n=10, read-out: Cmax, Mean (SD)): 4970 ng/mL
Cmax (oral, 500 mg, C1D1, 500 mg QD, n=10, read-out: Cmax, Median (Min, max)): 4380 ng/mL
half-life (oral, 500 mg, C1D1, 500 mg QD, n=10, read-out: T1/2, Geo-mean (converted)): 10.1 h
half-life (oral, 500 mg, C1D1, 500 mg QD, n=10, read-out: T1/2, Mean (SD) (converted)): 10.2 h
half-life (oral, 500 mg, C1D1, 500 mg QD, n=10, read-out: T1/2, Median (Min, max) (converted)): 10.1 h
Tmax (oral, 500 mg, C1D1, 500 mg QD, n=10, read-out: Tmax, Median (Min, max)): 1.03 h
AUC(0-t) (oral, 500 mg, C1D15, 500 mg QD, n=9, read-out: AUC0-t, Geo-mean): 43100 ng·h/mL
AUC(0-t) (oral, 500 mg, C1D15, 500 mg QD, n=9, read-out: AUC0-t, Mean (SD)): 45700 ng·h/mL
AUC(0-t) (oral, 500 mg, C1D15, 500 mg QD, n=9, read-out: AUC0-t, Median (Min, max)): 41700 ng·h/mL
Cmax (oral, 500 mg, C1D15, 500 mg QD, n=9, read-out: Cmax, Geo-mean): 3870 ng/mL
Cmax (oral, 500 mg, C1D15, 500 mg QD, n=9, read-out: Cmax, Mean (SD)): 4170 ng/mL
Cmax (oral, 500 mg, C1D15, 500 mg QD, n=9, read-out: Cmax, Median (Min, max)): 3700 ng/mL
concentration at 15 day (oral, 500 mg, C1D15, 500 mg QD, n=9): 643 ng/mL
Tmax (oral, 500 mg, C1D15, 500 mg QD, n=9, read-out: Tmax, Median (Min, max)): 1.07 h
AUC(0-t) (oral, 800 mg, C1D1, 800 mg QD, n=1, read-out: AUC0-t, Geo-mean): 54300 ng·h/mL
AUC(0-t) (oral, 800 mg, C1D1, 800 mg QD, n=1, read-out: AUC0-t, Mean (SD)): 54300 ng·h/mL
AUC(0-t) (oral, 800 mg, C1D1, 800 mg QD, n=1, read-out: AUC0-t, Median (Min, max)): 54300 ng·h/mL
AUC(0-inf) (oral, 800 mg, C1D1, 800 mg QD, n=1, read-out: AUCinf, Geo-mean): 66200 ng·h/mL
AUC(0-inf) (oral, 800 mg, C1D1, 800 mg QD, n=1, read-out: AUCinf, Mean (SD)): 66200 ng·h/mL
AUC(0-inf) (oral, 800 mg, C1D1, 800 mg QD, n=1, read-out: AUCinf, Median (Min, max)): 66200 ng·h/mL
Cmax (oral, 800 mg, C1D1, 800 mg QD, n=1, read-out: Cmax, Geo-mean): 6080 ng/mL
Cmax (oral, 800 mg, C1D1, 800 mg QD, n=1, read-out: Cmax, Mean (SD)): 6080 ng/mL
Cmax (oral, 800 mg, C1D1, 800 mg QD, n=1, read-out: Cmax, Median (Min, max)): 6080 ng/mL
half-life (oral, 800 mg, C1D1, 800 mg QD, n=1, read-out: T1/2, Geo-mean (converted)): 8.85 h
half-life (oral, 800 mg, C1D1, 800 mg QD, n=1, read-out: T1/2, Mean (SD) (converted)): 8.85 h
half-life (oral, 800 mg, C1D1, 800 mg QD, n=1, read-out: T1/2, Median (Min, max) (converted)): 8.85 h
Tmax (oral, 800 mg, C1D1, 800 mg QD, n=1, read-out: Tmax, Median (Min, max)): 0.483 h
AUC(0-inf) (oral, 1000 mg, C1D1, 1000 mg QD, n=3, read-out: AUCinf, Geo-mean): 75700 ng·h/mL
AUC(0-inf) (oral, 1000 mg, C1D1, 1000 mg QD, n=3, read-out: AUCinf, Mean (SD)): 78000 ng·h/mL
AUC(0-inf) (oral, 1000 mg, C1D1, 1000 mg QD, n=3, read-out: AUCinf, Median (Min, max)): 66000 ng·h/mL
half-life (oral, 1000 mg, C1D1, 1000 mg QD, n=3, read-out: T1/2, Geo-mean (converted)): 9.94 h
half-life (oral, 1000 mg, C1D1, 1000 mg QD, n=3, read-out: T1/2, Mean (SD) (converted)): 10 h
half-life (oral, 1000 mg, C1D1, 1000 mg QD, n=3, read-out: T1/2, Median (Min, max) (converted)): 9.32 h
AUC(0-t) (oral, 1000 mg, C1D1, 1000 mg QD, n=4, read-out: AUC0-t, Geo-mean): 69700 ng·h/mL
AUC(0-t) (oral, 1000 mg, C1D1, 1000 mg QD, n=4, read-out: AUC0-t, Mean (SD)): 74300 ng·h/mL
AUC(0-t) (oral, 1000 mg, C1D1, 1000 mg QD, n=4, read-out: AUC0-t, Median (Min, max)): 70100 ng·h/mL
Cmax (oral, 1000 mg, C1D1, 1000 mg QD, n=4, read-out: Cmax, Geo-mean): 5080 ng/mL
Cmax (oral, 1000 mg, C1D1, 1000 mg QD, n=4, read-out: Cmax, Mean (SD)): 5410 ng/mL
Cmax (oral, 1000 mg, C1D1, 1000 mg QD, n=4, read-out: Cmax, Median (Min, max)): 5230 ng/mL
Tmax (oral, 1000 mg, C1D1, 1000 mg QD, n=4, read-out: Tmax, Median (Min, max)): 2 h
AUC(0-t) (oral, 1000 mg, C1D15, 1000 mg QD, n=2, read-out: AUC0-t, Geo-mean): 48000 ng·h/mL
AUC(0-t) (oral, 1000 mg, C1D15, 1000 mg QD, n=2, read-out: AUC0-t, Mean (SD)): 48300 ng·h/mL
AUC(0-t) (oral, 1000 mg, C1D15, 1000 mg QD, n=2, read-out: AUC0-t, Median (Min, max)): 48300 ng·h/mL
Cmax (oral, 1000 mg, C1D15, 1000 mg QD, n=2, read-out: Cmax, Geo-mean): 4870 ng/mL
Cmax (oral, 1000 mg, C1D15, 1000 mg QD, n=2, read-out: Cmax, Mean (SD)): 5110 ng/mL
Cmax (oral, 1000 mg, C1D15, 1000 mg QD, n=2, read-out: Cmax, Median (Min, max)): 5110 ng/mL
concentration at 15 day (oral, 1000 mg, C1D15, 1000 mg QD, n=2): 674 ng/mL
Tmax (oral, 1000 mg, C1D15, 1000 mg QD, n=2, read-out: Tmax, Median (Min, max)): 0.792 h
half-life (oral, across different doses, read-out: Terminal T1/2 (converted)): ~11 h
Tmax (oral, fasting, 100–1000 mg QD and 200–400 mg BID, read-out: Tmax): ~1 h
Tmax (po, D1 and D15, read-out: Median Tmax, range across dose groups): 0.483 to 2 h
half-life (po, read-out: Mean terminal half-life (T1/2), range across dose groups): 8.49 to 13.8 h
